Reference: patent publication US20240114902A1, “COMPOSITIONS AND METHODS FOR DETERRING OVIPOSITION BY FRUIT FLIES” (The United States of America, as represented by The …, priority 2022, published 2024)

Tests used:
[1] = system: melon fly (Zeugodacus cucurbitae); test: Additional fatty acids: melon fly two-choice oviposition bioassay on pumpkin juice agar; format: in vivo; conditions: 20 mg, 24 hours
Protocol: (§1) Oviposition bioassays were conducted using laboratory two-choice cage experiments with pumpkin juice-infused agar (for Melon fly) and guava juice-infused agar (for OFF) as oviposition substrate. The agar plates were prepared by pouring 10 mL of boiled agar mixture [1000 mL distilled water, 500 mL pumpkin or guava juice, 10 g agar, 0.6 g methylparaben, 6.7 mL 95% ethanol, and 3 mL acetic acid] into a small petri dish (60 mm×15 mm). The agar was then covered with a lid to avoid desiccation. The two-choice oviposition bioassay was conducted in screened cages using 20 mated melon fly or OFF females per cage (14-18 day-old; Jang et al.; Supra) over 24 hours. Each cage was provided with a ball of water-saturated cotton and sugar+protein hydrolysate mixture in separate 30 mL deli cups, and two agar plates-one treated with one of the test compounds (C4:0 (Butyric acid), C5:0 (Valeric acid), C6:0 (Caproic acid), C7:0 (Enanthic acid), C9:0 (Pelargonic acid), C11:0 (Undecylic acid), C13:0 (Tridecylic acid), C15:0 (Pentadecylic acid), C17:0 (Margaric acid), or C19:0 (Nonadecylic acid)) diluted in ethanol and the other treated with the ethanol which served as a control. The agar plates were surface-treated either with 200 μL of ethanol (control) or 200 μL of one of tested compounds diluted at 20 mg/200 μL of ethanol, placed into a fume hood for 10 minutes to evaporate solvents prior to be used in bioassays, and positioned upside-down (i.e. treated side down) on the center of the outside top of the screened cage 17 cm apart from each other (i.e. one each of control and treated), allowing female flies to oviposit on pumpkin (for melon fly) or guava juice (for OFF) agar from the bottom through the cage screen. After 24 hours, melon fly and OFF eggs in the agar were gently separated from the agar in water and the number of eggs were individually counted. The experiment was replicated five times per treatment.

oriental fruit fly (OFF) = test: Additional fatty acids: OFF two-choice oviposition bioassay on guava juice agar, 24 hours; format: in vivo, Bactrocera dorsalis; conditions: individual compound, 20 mg dose
Protocol: as §1

Bactrocera dorsalis = test: B. dorsalis spatial deterrence, two-choice traps baited with guava juice; format: in vivo; conditions: tested individually
Protocol: In addition to CFA, a series of odd-numbered carbon fatty acids (C9:0 to C17:0) and fatty acid methyl esters were evaluated for the spatial deterrence to B. dorsalis that results in oviposition reduction. Table 3 below lists the fatty acid methyl esters tested for spatial repellency for Bactrocera dorsalis. […] FIG. 16A, FIG. 16C, FIG. 16E, FIG. 16G, FIG. 16I, FIG. 16K, FIG. 16M, FIG. 16O, FIG. 16Q, and FIG. 16S show the mean numbers (±SEM) of mated female B. dorsalis flies captured, and FIG. 16B, FIG. 16D, FIG. 16F, FIG. 16H, FIG. 16J, FIG. 16L, FIG. 16N, FIG. 16P, FIG. 16R, and FIG. 16T show the number of B. dorsalis eggs oviposited in traps baited with guava juice (control) and with guava juice plus one of the coconut fatty acid methyl ester compounds in two-choice bioassays. For each test, different letter on the bar indicate a significant difference by Tukey-Kramer tests at P<0.05, n=4.

Zeugodacus cucurbitae = test: Spatial repellency of fatty acid methyl esters, two-choice traps with pumpkin juice; format: in vivo; conditions: 100 μL doses
Source text: The methods used to test the repellency of fatty acid methyl esters for OFF described above were used in this Example, with minor modifications. The only difference was that pumpkin juice was used as attractant in traps. Melon flies used in this study were from melon fly colony at the U.S Pacific Basin Agricultural Research Center in Hilo, Hawaii, which were maintained on a standard larval diet containing wheat, sugar, and yeast (Tanaka at al., Supra). Chemicals tested were C8:0ME (Methyl octanoate), C10:0ME (Methyl decanoate), C12:0ME (Methyl laurate), C14:0ME (Methyl tetradecanoate), C16:0ME (Methyl palmitate), C18:0ME (Methyl stearate), C18:1ME (Methyl Oleate), and C18:2 (Methyl linoleate).

[2] = system: Bactrocera dorsalis (OFF); test: OFF two-choice cage oviposition bioassay on guava juice-infused agar; format: in vivo; conditions: individual compound, 20 mg/agar
Protocol: Evaluation of oviposition deterrence of CFA: OFF oviposition bioassays were conducted using laboratory two-choice cage experiments with guava juice-infused agar as an oviposition substrate. The agar plates were prepared by pouring 30 mL of boiled agar mixture [1000 mL distilled water, 500 mL guava juice (Deans Foods, El Paso, Texas, USA), 10 g agar, 0.6 g methylparaben, 6.7 mL 95% ethanol, and 3 mL acetic acid] into a 30 mL deli plastic cup to gel. The agar was then covered with a lid to avoid desiccation. The two-choice oviposition bioassay was conducted in screened cages using 20 mated OFF females per cage (12-18 day-old; Jang E B et al., 1997, “Attraction of female oriental fruit fly, Bactrocera dorsalis, to volatile semiochemicals from leaves and extracts of a non-host plant, Panax (Polyscias guilfoylei) in laboratory and olfactometer assays,” J. Chem. Ecol. 23:1389-1401) over 3 days. Each cage was provided with a ball of water-saturated cotton, sugar, and protein hydrolysate in separate 30 mL deli cups and two guava juice agar plates-one treated with CFA diluted in hexane and the other treated with the hexane control. The agar plates were surface-treated either with 200 μL of hexane or 200 μL of CFA in one of 4 doses tested (20, 2, 0.2, and 0.02 mg/200 μL of hexane), placed into a fume hood for 10 minutes prior to use in bioassays, and positioned upside-down (i.e., treated side down) on the center of the outside top of the screened cage 17 cm apart from each other (i.e., one each of control and CFA treated), allowing female flies to oviposit on guava juice agar from the bottom through the cage screen. After three days, OFF eggs in the guava agar were gently separated from the agar in water and the number of eggs were individually counted (up to 100 eggs) or estimated volumetrically at 1 mL OFF eggs=20,000 eggs (Stephanie Gayle personal communication). The experiment was replicated six times per treatment. Determination of bioactive oviposition deterrent components from CFA: A series of bioassays was conducted to identify key deterrent components of CFA for OFF using the same two-choice bioassay design described above. […] Ethanol was used as control and for preparing dilutions of C16:0 and C18:0. Hexane was used as control and for dilutions of the other six compounds tested. Based on the outcome of these bioassays, the eight free fatty acid components were assigned to “OFF negative” (i.e., oviposition reduced), “OFF neutral” (i.e., no effect on oviposition), and “OFF positive” (i.e., oviposition increased) compound groups. Using these groupings, four different blends were formulated (indicated in Table 1), composed at the equivalent ratios and concentrations of each component found in CFA (Zhu J J et al., 2018, supra), to determine key bioactive CFA components in terms of oviposition deterrence on OFF. The approach involved testing the bioactivity of the OFF negative-component blend (4c blend) for oviposition deterrence at three different doses (2, 0.2, and 0.02 mg CFA equivalent/agar), first comparing with hexane control, then with CFA at respective equivalent doses. As the 4c blend was not as effective as CFA, a “OFF negative+OFF neutral” component blend (6c blend) was then formulated, and its effect compared with CFA at 2 and 0.2 mg CFA equivalent/agar. Two subtraction blends with one of the two OFF neutral components removed from the 6c blend (5c-i and 5c-ii blends) were formulated and compared with the 6c blend at 2 and 0.2 mg CFA equivalent/agar. The experiment was replicated four to six times per treatment.

SMILES: CCCC(=O)O [C4:0, Butyric acid]
- effect on melon fly oviposition vs control [1]: did not affect melon fly oviposition
- effect on OFF oviposition (oriental fruit fly (OFF)): did not affect OFF oviposition

SMILES: CCCCC(=O)O [C5:0, Valeric acid]
- fewer melon fly eggs on treated pumpkin juice agar vs control agar [1]: 72.5%
- effect on OFF oviposition (oriental fruit fly (OFF)): did not affect OFF oviposition

SMILES: CCCCCC(=O)O [C6:0, Caproic acid]
- effect on melon fly oviposition vs control [1]: increased melon fly oviposition
- effect on OFF oviposition (oriental fruit fly (OFF)): did not affect OFF oviposition

SMILES: CCCCCCC(=O)O [C7:0, Enanthic acid]
- effect on female B. dorsalis attraction and oviposition to host fruit odors (Bactrocera dorsalis): significantly reduced
- effect on melon fly oviposition vs control [1]: increased melon fly oviposition
- effect on OFF oviposition (oriental fruit fly (OFF)): did not affect OFF oviposition

SMILES: CCCCCCCC(=O)OC [C8:0 ME, Methyl caprylate]
- effect on female B. dorsalis attraction and oviposition to host fruit odors (Bactrocera dorsalis): significantly reduced
- fewer Z. cucurbitae captured in traps baited with FAME vs control (Zeugodacus cucurbitae): 97.1%

SMILES: CCCCCCCCC(=O)O [C9:0, Pelargonic acid]
- effect on OFF oviposition vs control agar [2]: significantly reduced
- effect on female B. dorsalis attraction and oviposition to host fruit odors (Bactrocera dorsalis): significantly reduced
- effect on melon fly oviposition vs control [1]: did not affect melon fly oviposition

SMILES: CCCCCCCCCC(=O)OC [C10:0 ME, Methyl caprate]
- effect on female B. dorsalis attraction and oviposition to host fruit odors (Bactrocera dorsalis): significantly reduced
- fewer Z. cucurbitae captured in traps baited with FAME vs control (Zeugodacus cucurbitae): 76.0%

SMILES: CCCCCCCCCCCC(=O)OC [C12:0 ME, Methyl laurate]
- effect on female B. dorsalis attraction and oviposition to host fruit odors (Bactrocera dorsalis): significantly reduced
- fewer Z. cucurbitae captured in traps baited with FAME vs control (Zeugodacus cucurbitae): 55.5%

SMILES: CCCCCCCCCCCCC(=O)O [C13:0, Tridecylic acid]
- effect on OFF oviposition vs control agar [2]: significantly reduced
- fewer melon fly eggs on treated pumpkin juice agar vs control agar [1]: 75.7%

SMILES: CCCCCCCCCCCCCC(=O)OC [C14:0 ME, Methyl myristate]
- effect on melon fly behavior (Zeugodacus cucurbitae): did not affect melon fly behavior

SMILES: CCCCCCCCCCCCCCC(=O)O [C15:0, Pentadecylic acid]
- effect on melon fly oviposition vs control [1]: increased melon fly oviposition

SMILES: CCCCCCCCCCCCCCCC(=O)OC [C16:0 ME, Methyl palmitate]
- effect on melon fly behavior (Zeugodacus cucurbitae): did not affect melon fly behavior

SMILES: CCCCCCCCCCCCCCCCC(=O)O [C17:0, Margaric acid]
- effect on melon fly oviposition vs control [1]: increased melon fly oviposition

SMILES: CCCCCCCCCCCCCCCCCC(=O)OC [C18:0ME, Methyl stearate]
- effect on melon fly behavior (Zeugodacus cucurbitae): did not affect melon fly behavior

SMILES: CCCCCCCC/C=C\CCCCCCCC(=O)OC [C18:1ME, Methyl Oleate]
- fewer Z. cucurbitae captured in traps baited with FAME vs control (Zeugodacus cucurbitae): 91.8%

SMILES: CCCCC/C=C\C/C=C\CCCCCCCC(=O)OC [C18:2ME, Methyl linoleate]
- effect on melon fly behavior (Zeugodacus cucurbitae): did not affect melon fly behavior

SMILES: CCCCCCCCCCCCCCCCCCC(=O)O [C19:0, Nonadecylic acid]
- effect on melon fly oviposition vs control [1]: did not affect melon fly oviposition
